According to the supplement of paper PMC10307832:

What was measured:
Assay in all cases: relative viability (nuclei count vs DMSO), 5 days (fraction); higher = more cells survive
[1] = compound: C1CC1C(=O)NC2=NNC3=C2C=CC(=C3)C4=CC(=CC=C4)C(=O)NC5CC5 [XMD13-2] + CS(=O)(=O)N1CCN(Cc2cc3nc(-c4cccc5[nH]ncc45)nc(N4CCOCC4)c3s2)CC1 [Pictilisib] (partner 1 µM)
How it was run: (§1)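 A single step with final 0.05% Triton X-100, 1% formaldehyde and 1 ug/ml Hoechst fixed the cells and stained nuclei 5 days after treatment. Lung cancer cell lines in 1536-well plates had been treated by pin tool the day after seeding with one drug alone or a fixed anchor-drug dose plus five library-drug doses (not always all listed) in √10 steps, and nuclei were counted on 4× images. Relative viability is the ratio of nuclei in treated wells to nuclei in vehicle wells, taken as the median of duplicate plates.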

[2] = compound: Cc1ccc(C(=O)Nc2cccc(C(F)(F)F)c2)cc1Nc1cncc(C(N)=O)c1 [ALW-II-49-7] + COc1cccc2cc(-c3nc([C@H]4CC[C@H](C(=O)O)CC4)n4ncnc(N)c34)[nH]c12 [OSI-027] (partner 0.5 µM)
How it was run: as §1

[3] = compound: Cc1ccc(C(=O)Nc2cccc(C(F)(F)F)c2)cc1Nc1cncc(C(N)=O)c1 [ALW-II-49-7] + CS(=O)(=O)N1CCN(Cc2cc3nc(-c4cccc5[nH]ncc45)nc(N4CCOCC4)c3s2)CC1 [Pictilisib] (partner 1 µM)
How it was run: as §1

[4] = compound: Cc1ccc(C(=O)Nc2cccc(C(F)(F)F)c2)cc1Nc1cncc(C(N)=O)c1 [ALW-II-49-7] + N=C(N)NC(=N)NCCc1ccccc1 [Phenformin] (partner 250 µM)
How it was run: as §1

| Cell Line | relative viability ([1]; first compound 0.05 µM) | relative viability ([1]; first compound 0.1581 µM) | relative viability ([1]; first compound 0.5 µM) | relative viability ([1]; first compound 1.581 µM) | relative viability ([1]; first compound 5 µM) | relative viability ([2]; first compound 0.08 µM) | relative viability ([2]; first compound 0.253 µM) | relative viability ([2]; first compound 2.53 µM) | relative viability ([2]; first compound 8 µM) | relative viability ([3]; first compound 0.08 µM) | relative viability ([3]; first compound 0.253 µM) | relative viability ([3]; first compound 0.8 µM) | relative viability ([3]; first compound 2.53 µM) | relative viability ([3]; first compound 8 µM) | relative viability ([4]; first compound 0.08 µM) | relative viability ([4]; first compound 0.253 µM) | relative viability ([4]; first compound 2.53 µM) | relative viability ([4]; first compound 8 µM) | relative viability ([2]; first compound 0.8 µM) | relative viability ([4]; first compound 0.8 µM) |
| --- | --- | --- | --- | --- | --- | --- | --- | --- | --- | --- | --- | --- | --- | --- | --- | --- | --- | --- | --- | --- |
| HCC-78 | 0.227 | 0.281 | 0.195 | 0.223 | 0.188 | 0.34 | 0.394 | 0.36 | 0.395 | 0.192 | 0.188 | 0.203 | 0.268 | 0.192 | 0.718 | 0.745 | 0.677 | 0.633 | – | – |
| HCC-366 | 0.189 | 0.136 | 0.151 | 0.2 | 0.12 | 0.977 | 1.17 | 0.985 | 0.627 | 0.13 | 0.142 | 0.148 | 0.0944 | 0.217 | 0.649 | 0.623 | 0.622 | 0.611 | 0.731 | 0.541 |
| HCC-827 | 1.01 | 0.901 | 1.18 | 0.913 | 0.67 | 0.737 | 0.696 | 0.621 | 0.64 | 0.988 | 1.03 | 0.887 | 0.815 | 1.03 | 0.403 | 0.388 | 0.413 | 0.363 | 0.714 | 0.399 |
| HOP-62 | 1.01 | 0.617 | 0.586 | 0.725 | 0.476 | 0.768 | 0.96 | 0.721 | 0.608 | 0.68 | 0.97 | 0.857 | 0.621 | 0.491 | 0.585 | 0.598 | 0.696 | 0.429 | 0.875 | 0.611 |
| IA-LM | 0.387 | 0.317 | 0.339 | 0.3 | 0.179 | – | – | – | – | 0.334 | 0.281 | 0.388 | 0.209 | 0.288 | – | – | – | – | – | – |
| LC-2-ad | 0.533 | 0.352 | 0.569 | 0.413 | 0.332 | 0.733 | 0.843 | 0.73 | 0.771 | 0.427 | 1.04 | 0.31 | 0.542 | 0.555 | 0.478 | 0.555 | 0.638 | 0.531 | 0.783 | 0.58 |
| LCLC-97TM1 | 0.297 | 0.187 | 0.13 | 0.148 | 0.123 | 0.514 | 0.46 | 0.527 | 0.379 | 0.213 | 0.119 | 0.269 | 0.159 | 0.195 | 0.44 | 0.425 | 0.393 | 0.459 | 0.466 | 0.451 |
| LCLC-103H | 0.684 | 0.714 | 0.585 | 0.657 | 0.622 | 0.43 | 0.462 | 0.463 | 0.377 | 0.544 | 0.859 | 0.692 | 0.67 | 0.546 | 0.306 | 0.343 | 0.288 | 0.335 | 0.474 | 0.281 |
| LK-2 | 0.744 | 0.464 | 0.581 | 0.619 | 0.582 | 0.202 | 0.205 | – | 0.186 | 0.559 | 0.648 | 0.508 | 0.361 | 0.513 | – | 0.476 | 0.48 | 0.349 | 0.213 | 0.388 |
| LOU-NH91 | 0.565 | 0.506 | 0.524 | 0.494 | 0.511 | 0.666 | 0.733 | 0.729 | 0.676 | 0.482 | 0.599 | 0.514 | 0.428 | 0.533 | 0.698 | 0.671 | 0.596 | 0.633 | 0.684 | 0.621 |
| LU99A | 0.298 | 0.334 | 0.32 | 0.284 | 0.254 | 0.293 | 0.288 | 0.282 | 0.294 | 0.323 | 0.325 | 0.297 | 0.325 | 0.293 | 0.845 | 0.923 | 0.988 | 0.746 | 0.282 | 0.82 |
| LXF-289 | 0.941 | 0.728 | 0.806 | 0.714 | 0.642 | 0.697 | 0.901 | 0.81 | 0.735 | 0.711 | 0.778 | 0.8 | 0.773 | 0.746 | 0.515 | 0.554 | 0.536 | 0.526 | 0.846 | 0.556 |
| NCI-H23 | 0.579 | 0.438 | 0.503 | 0.446 | 0.457 | 0.52 | 0.492 | 0.562 | 0.475 | 0.524 | 0.448 | 0.459 | 0.526 | 0.441 | 0.855 | 0.759 | 0.857 | 0.898 | 0.476 | 0.705 |
| NCI-H522 | – | – | – | – | – | 0.795 | 0.753 | 0.718 | 0.749 | – | – | – | – | – | 0.678 | 0.667 | 0.576 | 0.732 | 0.634 | 0.687 |
| NCI-H1299 | 0.896 | 0.738 | 0.826 | 0.592 | 0.398 | – | – | – | – | 0.623 | 0.78 | 0.609 | 0.436 | 0.311 | – | – | – | – | – | – |
| NCI-H1623 | – | – | – | – | – | 0.416 | 0.408 | 0.351 | 0.357 | – | – | – | – | – | 0.566 | 0.504 | 0.565 | 0.564 | 0.371 | 0.574 |
| NCI-H1648 | – | – | – | – | – | 0.254 | 0.264 | 0.255 | 0.215 | – | – | – | – | – | – | – | – | – | 0.264 | – |
| NCI-H1703 | 0.296 | 0.262 | 0.267 | 0.237 | 0.193 | – | – | – | – | 0.239 | 0.241 | 0.212 | 0.203 | 0.205 | – | – | – | – | – | – |
| NCI-H2342 | – | – | – | – | – | 0.532 | 0.535 | 0.592 | 0.562 | – | – | – | – | – | 0.572 | 0.602 | 0.497 | 0.564 | 0.602 | 0.635 |
| SW 900 | – | – | – | – | – | 0.426 | 0.642 | 0.445 | 0.347 | – | – | – | – | – | 0.397 | 0.542 | 0.703 | 0.534 | 0.555 | 0.549 |
